The source made the active and inactive calls. The rule behind the calls is not given here.
Legend:
HeLa = assay: Antiproliferative activity against human HeLa cells incubated for 72 hrs by MTT assay; type: functional, cell-based
SAS = assay: Antiproliferative activity against human SAS cells incubated for 72 hrs by MTT assay; type: functional, cell-based
[1] = Antiproliferative activity against human SKHep cells incubated for 72 hrs by MTT assay; type: functional, cell-based
AGS = assay: Antiproliferative activity against human AGS cells incubated for 72 hrs by MTT assay; type: functional, cell-based
[2] = Antiproliferative activity against human 786-O cells incubated for 72 hrs by MTT assay; type: functional, cell-based; conditions: 786-0, 72 h
MDA-MB-231 = assay: Antiproliferative activity against human MDA-MB-231 cells incubated for 72 hrs by MTT assay; type: functional, cell-based; conditions: MDA-MB-231, 72 h
NCI-H1299 [3] = assay: Antiproliferative activity against human H1299 cells incubated for 72 hrs by MTT assay; type: functional, cell-based; conditions: NCI-H1299, 72 h
Detroit 551 = assay: Antiproliferative activity against human Detroit 551 cells incubated for 72 hrs by MTT assay; type: functional, cell-based; conditions: Detroit 551, 72 h
Nucleic Acid = assay: Induction of DNA intercalation of negative supercoiled Escherichia coli pBR322 DNA at 10 uM incubated for 12 hrs by ethidium bromide staining based DNA mobility assay; type: nucleic-acid assay
NCI-H1299 [4] = assay: Induction of apoptosis in human H1299 cells assessed as early apoptotic cells level at 1 uM annexin V and propidium iodide double staining based flow cytometry (reference value: 0.4 +/- 0.17%); type: functional
NCI-H1299 [5] = assay: Induction of apoptosis in human H1299 cells assessed as late apoptotic cells level at 1 uM annexin V and propidium iodide double staining based flow cytometry (reference value: 1.9 +/- 0.12%); type: functional
NCI-H1299 [6] = assay: Induction of apoptosis in human H1299 cells assessed as early apoptotic cells level at 5 uM annexin V and propidium iodide double staining based flow cytometry (reference value: 0.4 +/- 0.17%); type: functional
NCI-H1299 [7] = assay: Induction of apoptosis in human H1299 cells assessed as late apoptotic cells level at 5 uM annexin V and propidium iodide double staining based flow cytometry (reference value: 1.9 +/- 0.12%); type: functional
NCI-H1299 [8] = assay: Induction of apoptosis in human H1299 cells assessed as early apoptotic cells level at 10 uM annexin V and propidium iodide double staining based flow cytometry (reference value: 0.4 +/- 0.17%); type: functional
NCI-H1299 [9] = assay: Induction of apoptosis in human H1299 cells assessed as late apoptotic cells level at 10 uM annexin V and propidium iodide double staining based flow cytometry (reference value: 1.9 +/- 0.12%); type: functional
NCI-H1299 [10] = assay: Induction of DNA damage in human H1299 cells at 10 uM incubated for 24 hrs by single cell electrophoresis-based alkaline comet assay; type: functional
NCI-H1299 [11] = assay: Induction of apoptosis in human H1299 cells assessed as increase in BAX cleavage at 1 to 10 uM incubated for 24 hrs by Western blotting method; type: functional, cell-based
NCI-H1299 [12] = assay: Induction of apoptosis in human H1299 cells assessed as increase in caspase-3 activation at 1 to 10 uM incubated for 24 hrs by Western blotting method; type: functional, cell-based
NCI-H1299 [13] = assay: Induction of apoptosis in human H1299 cells assessed as increase in caspase-7 activation at 1 to 10 uM incubated for 24 hrs by Western blotting method; type: functional, cell-based
NCI-H1299 [14] = assay: Induction of apoptosis in human H1299 cells assessed as decrease in Bcl2 expression at 1 to 10 uM incubated for 24 hrs by Western blotting method; type: functional, cell-based
[15] = Reduction in HDAC6 protein expression in human H1299 cells at 1 to 10 uM incubated for 24 hrs by Western blotting method; type: functional, cell-based; conditions: NCI-H1299
[16] = Reduction in SIRT1 protein expression in human H1299 cells at 1 to 10 uM incubated for 24 hrs by Western blotting method; type: functional, cell-based; conditions: NCI-H1299
[17] = Reduction in FOXO3a protein expression in human H1299 cells at 1 to 10 uM incubated for 24 hrs by Western blotting method; type: functional, cell-based; conditions: NCI-H1299
[18] = Reduction in p-Akt protein expression in human H1299 cells at 1 to 10 uM incubated for 24 hrs by Western blotting method; type: functional, cell-based; conditions: NCI-H1299
[19] = Reduction in PTEN protein expression in human H1299 cells at 1 to 10 uM incubated for 24 hrs by Western blotting method; type: functional, cell-based; conditions: NCI-H1299
NCI-H1299 [20] = assay: Induction of apoptosis in human H1299 cells assessed as early apoptotic cells level at 1 uM annexin V and propidium iodide double staining based flow cytometry (reference value: 0.74 +/- 0.31%); type: functional
NCI-H1299 [21] = assay: Induction of apoptosis in human H1299 cells assessed as late apoptotic cells level at 1 uM annexin V and propidium iodide double staining based flow cytometry (reference value: 2.62 +/- 0.75%); type: functional
NCI-H1299 [22] = assay: Induction of apoptosis in human H1299 cells assessed as early apoptotic cells level at 5 uM annexin V and propidium iodide double staining based flow cytometry (reference value: 0.74 +/- 0.31%); type: functional
NCI-H1299 [23] = assay: Induction of apoptosis in human H1299 cells assessed as late apoptotic cells level at 5 uM annexin V and propidium iodide double staining based flow cytometry (reference value: 2.62 +/- 0.75%); type: functional
NCI-H1299 [24] = assay: Induction of apoptosis in human H1299 cells assessed as early apoptotic cells level at 10 uM annexin V and propidium iodide double staining based flow cytometry (reference value: 0.74 +/- 0.31%); type: functional
NCI-H1299 [25] = assay: Induction of apoptosis in human H1299 cells assessed as late apoptotic cells level at 10 uM annexin V and propidium iodide double staining based flow cytometry (reference value: 2.62 +/- 0.75%); type: functional
NCI-H1299 [26] = assay: Induction of DNA damage in human H1299 cells at 5 uM incubated for 24 hrs by single cell electrophoresis-based alkaline comet assay; type: functional
NCI-H1299 [27] = assay: Induction of apoptosis in human H1299 cells assessed as increase in PARP cleavage at 1 to 10 uM incubated for 24 hrs by Western blotting method; type: functional, cell-based

Row | SMILES | IC50 (HeLa) | IC50 (SAS) | IC50 [1] | IC50 (AGS) | IC50 [2] | IC50 (MDA-MB-231) | IC50 (NCI-H1299 [3]) | IC50 (Detroit 551) | other results
1 | COc1ccc2c(c1)C(=O)c1c-2c(N2CCN(C(=O)CCNCCN(C)C)CC2)nc2ccccc12 | 4.78 µM | 8.8 µM | 5.08 µM | 4.94 µM | 7.03 µM | 7.44 µM | 5.65 µM | 2.53 µM | –
2 | COc1ccc2c(c1)/C(=N\OCCN1CCCC1)c1c-2c(O)nc2ccccc12 | – | – | – | – | – | – | – | – | Activity (Nucleic Acid): Active
3 | CC[C@@]1(O)C(=O)OCc2c1cc1n(c2=O)Cc2cc3ccccc3nc2-1 [CAMPTOTHECIN] | 0.18 µM | 6 µM | 0.22 µM | 23.8 µM | 0.015 µM | 2.11 µM | 3.14 µM | 0.99 µM | –
4 | COc1ccc2c(c1)C(=O)c1c-2c(N2CCNCC2)nc2ccccc12 | 15.2 µM | > 30 µM | 25.3 µM | 10.1 µM | 12.5 µM | 23.8 µM | 17.1 µM | 5.71 µM | –
5 | COc1ccc2c(c1)C(=O)c1c-2c(N2CCN(CC(O)CN(C)C)CC2)nc2ccccc12 (stereo not drawn) | 2.47 µM | 6.9 µM | 2.22 µM | 7.86 µM | 6.8 µM | 6.11 µM | 6.84 µM | 2.58 µM | –
6 | CNCCC(=O)N1CCN(c2nc3ccccc3c3c2-c2ccc(OC)cc2C3=O)CC1 | 1.9 µM | 6.9 µM | 9.1 µM | 8.11 µM | 6 µM | 5.89 µM | 5.46 µM | 2.92 µM | –
7 | COc1ccc2c(c1)/C(=N\OCC(O)CN(C)C)c1c-2c(N2CCN(CC(O)CN(C)C)CC2)nc2ccccc12 (stereo not drawn) | 0.98 µM | 9 µM | 2.46 µM | 18.6 µM | 13.9 µM | 0.7 µM | 0.68 µM | 2.05 µM | –
8 | COc1ccc2c(c1)C(=O)c1c-2c(N2CCN(C(=O)CCN(C)C)CC2)nc2ccccc12 | 11.7 µM | 17 µM | 16.6 µM | 8.11 µM | 11.5 µM | 6.61 µM | 5.79 µM | 2.84 µM | –
9 | COc1ccc2c(c1)C(=O)c1c-2c(N2CCN(C(=O)CNCCN(C)C)CC2)nc2ccccc12 | 8.17 µM | 19.5 µM | 16 µM | 14.1 µM | 9.37 µM | 6.15 µM | 6.48 µM | 4.59 µM | –
10 | COc1ccc2c(c1)C(=O)c1c-2c(N2CCN(C(=O)CCNCCO)CC2)nc2ccccc12 | 3.13 µM | 9.1 µM | 4.51 µM | 3.67 µM | 2.03 µM | 6.08 µM | 5.67 µM | 8.38 µM | –
11 | COc1ccc2c(c1)/C(=N\O)c1c-2c(N2CCNCC2)nc2ccccc12 | 2.35 µM | 6.1 µM | 3.75 µM | 1.74 µM | 1.2 µM | 5.87 µM | 5.72 µM | – | –
12 | COc1ccc2c(c1)C(=O)c1c-2c(N2CCN(C(=O)CNCCO)CC2)nc2ccccc12 | 4.74 µM | 11.3 µM | 6.64 µM | 6.55 µM | 6.7 µM | 5.9 µM | 5.41 µM | 8.78 µM | –
13 | COc1ccc2c(c1)C(=O)c1c-2c(N2CCN(C(=O)CCN3CCNCC3)CC2)nc2ccccc12 | 4.71 µM | 7.7 µM | 4.93 µM | 5.46 µM | 1.5 µM | 6.26 µM | 5.87 µM | 3.35 µM | –
14 | COc1ccc2c(c1)C(=O)c1c-2c(N2CCN(C(=O)CCNCCCN(C)C)CC2)nc2ccccc12 | 5.43 µM | 13.5 µM | 8.6 µM | 2.8 µM | 5.9 µM | 5.7 µM | 5.44 µM | 6.42 µM | –
15 | COc1ccc2c(c1)C(=O)c1c-2c(N2CCN(C(=O)CN(C)C)CC2)nc2ccccc12 | 11.8 µM | > 30 µM | 19.2 µM | 8.7 µM | 14.1 µM | 6.15 µM | 6.28 µM | 31.5 µM | –
16 | COc1ccc2c(c1)C(=O)c1c-2c(N2CCN(C(=O)CCN3CCOCC3)CC2)nc2ccccc12 | 14.3 µM | > 30 µM | 15.1 µM | 12 µM | > 30 µM | 21.9 µM | 18.7 µM | – | –
17 | COc1ccc2c(c1)C(=O)c1c-2c(N2CCN(CC3CO3)CC2)nc2ccccc12 (stereo not drawn) | 10.7 µM | > 30 µM | > 30 µM | 21.4 µM | 19.1 µM | 7.65 µM | 7.92 µM | – | Activity (NCI-H1299 [4]): 1.83%; Activity (NCI-H1299 [5]): 4.51%; Activity (NCI-H1299 [6]): 1.57%; Activity (NCI-H1299 [7]): 4.98%; Activity (NCI-H1299 [8]): 3.29%; Activity (NCI-H1299 [9]): 7.57%; Activity (NCI-H1299 [10]): Active
18 | CNCC(=O)N1CCN(c2nc3ccccc3c3c2-c2ccc(OC)cc2C3=O)CC1 | 2.04 µM | 7.4 µM | 4.83 µM | 7.15 µM | 6.2 µM | 5.92 µM | 5.14 µM | 4.84 µM | –
19 | CNCC(O)CN1CCN(c2nc3ccccc3c3c2-c2ccc(OC)cc2C3=O)CC1 (stereo not drawn) | 4.64 µM | 7.4 µM | 3.44 µM | 9.58 µM | 6.4 µM | 6.05 µM | 6.89 µM | 9.4 µM | –
20 | COc1ccc2c(c1)C(=O)c1c-2c(N2CCN(C(=O)CN3CCNCC3)CC2)nc2ccccc12 | > 30 µM | 7.4 µM | 2.22 µM | 3.37 µM | 4 µM | 5.45 µM | 5.32 µM | 2.55 µM | –
21 | COc1ccc2c(c1)/C(=N\OCC1CO1)c1c-2c(N2CCN(CC3CO3)CC2)nc2ccccc12 (stereo not drawn) | 0.54 µM | 6.2 µM | 0.99 µM | 8.76 µM | 8.8 µM | 0.79 µM | 1.18 µM | 7.95 µM | Activity (NCI-H1299 [11]): Active; Activity (NCI-H1299 [12]): Active; Activity (NCI-H1299 [13]): Active; Activity (NCI-H1299 [14]): Active; Activity [15]: Active; Activity [16]: Active; Activity [17]: Active; Activity [18]: Active; Activity [19]: Active; Activity (NCI-H1299 [20]): 1.38%; Activity (NCI-H1299 [21]): 4.5%; Activity (NCI-H1299 [22]): 2.45%; Activity (NCI-H1299 [23]): 8.25%; Activity (NCI-H1299 [24]): 1.6%; Activity (NCI-H1299 [25]): 17.9%; Activity (Nucleic Acid): Active; Activity (NCI-H1299 [26]): Active; Activity (NCI-H1299 [27]): Active
22 | COc1ccc2c(c1)C(=O)c1c-2c(N2CCN(C(=O)CN3CCOCC3)CC2)nc2ccccc12 | 18 µM | > 30 µM | 19.9 µM | 21.4 µM | > 30 µM | > 30 µM | > 30 µM | – | –
23 | COc1ccc2c(c1)C(=O)c1c-2c(N2CCN(C(=O)CNCCCN(C)C)CC2)nc2ccccc12 | 10.8 µM | > 30 µM | 13.1 µM | 5.62 µM | 9.97 µM | 6 µM | 5.99 µM | 8.89 µM | –
